Measured values: patent US8173695B2, “Kappa selective opioid receptor antagonist” (Eli Lilly and Company, priority 2008, dated 2012)

Key:
Format in all cases: in vivo
mu receptors (striatum) = molecular target: T1, mu receptors (striatum) (Rattus norvegicus, UniProt P33535); assay: Opioid receptor occupancy (RO) in rat brain, tracer naltrexone
T1 construct: from tissue; host or cells: striatum of living Sprague Dawley rats

P rats = assay: P rat progressive ratio responding for ethanol; details: 10 mg/kg p.o. 60 min prior to testing, p<0.05 versus vehicle
Experimental: This test assesses the motivation to work for access to ethanol in P rats following ethanol abstinence. This animal model simulates ethanol craving.
Female P rats (Indiana University Medical Center, Indianapolis, Ind., USA) are pair-housed in an environmentally controlled facility and maintained on a 12 h light/dark cycle (lights on at 0600 hours).
Compounds are solubilized in sterile water by the dropwise addition of 85% lactic acid, mixed freshly prior to use, and administered in a volume of 1 mL/kg. Unless otherwise stated, compounds are administered p.o. 60 min prior to the experimental session. Doses are assigned using a counterbalanced, within-subject design (n=8-11 per experiment).
In order to reduce novelty-induced avoidance of ethanol (EtOH), the water bottle on the homecage is replaced with a bottle containing 15% EtOH (v/v; Ancare, Bellmore, N.Y.) for two days prior to operant training. Throughout the rest of the experiment, rats are allowed ad libitum access to water and standard laboratory chow in the homecage.
Daily 60-min sessions are conducted in standard rat operant chambers, housed within sound-attenuating chambers (MED Associates, Inc., St. Albans, Vt., USA). The 0.5 cm diameter stainless steel bars of the floor grid of the operant chambers are positioned approximately 1.5 cm apart. Two retractable operant levers in each operant chamber are located approximately 15 cm above the grid floor and 13 cm apart. A recessed trough is located in the space between the levers, through which a dipper cup (0.1 mL capacity) is raised to deliver response-contingent ethanol (15% EtOH, v/v). Upon a reinforced response, a stimulus light is illuminated during the 4-sec dipper cup access. Operation of the stimuli and behavioral responses are controlled and recorded by personal computer for offline analysis. At the end of each session, all stimuli are turned off and levers are retracted.
Rats are trained to press a lever for EtOH reinforcement. Initially, responses on either lever are considered correct responses and are rewarded with reinforcement. […]

Male NIH-Swiss mice = assay: Mouse forced swim test; details: for immobility in mouse forced swim test, Mean: 60 min
Excerpt: This test evaluates the effect of test compound on mice mobility as a measure of antidepressant effect. The less immobility compared to vehicle, the more pronounced the antidepressant-like effect.
Male, NIH-Swiss mice (25-30 g) (Harlan Sprague-Dawley, Indianapolis, Ind., USA) are housed in a vivarium for at least one week prior to use with water and rodent chow freely available during this acclimation period. Animals are removed from the vivarium to the testing area in their home cages and allowed to adapt to the new environment for at least one hour before testing.
Mice are placed in clear plastic cylinders (diameter: 10 cm; height: 25 cm) filled with 6 cm of water (22-25° C.) for six minutes. The duration of immobility during the last four minutes of the six minutes test period is scored. A mouse is recorded as immobile when floating motionless or making only those movements necessary to keep its head above water.
The test compound is administered p.o. 1 hour prior to testing at 1.0 mg/kg, 3.0 mg/kg and 10.0 mg/kg, n of 8 per group in a vehicle of 5 ml of sterile water and 30 ml of diluted (10×) lactic acid. Imipramine is evaluated as a positive control, 15 mg/kg: p, 30 min. prior to testing n of 4.
A second study is carried out evaluating 1 and 3 mg/kg doses of the compound of Example 1A alone and in combination with 5 mg/kg of imipramine. Imipramine alone is evaluated at 5 and 15 mg/kg doses and a vehicle control is included in the study. For the combination studies, the compound of Example 1A is administered p.o. 30 minutes prior to administration of imipramine i.p. and the test initiated 30 minutes following imipramine administration. An n of 8 per group is evaluated for all groups. For the evaluations of the compound of Example 1A alone, testing is initiated 60 minutes following administration and testing of imipramine only treated animals is initiated 30 minutes following administration.

T1 sequence (P33535 whole entry): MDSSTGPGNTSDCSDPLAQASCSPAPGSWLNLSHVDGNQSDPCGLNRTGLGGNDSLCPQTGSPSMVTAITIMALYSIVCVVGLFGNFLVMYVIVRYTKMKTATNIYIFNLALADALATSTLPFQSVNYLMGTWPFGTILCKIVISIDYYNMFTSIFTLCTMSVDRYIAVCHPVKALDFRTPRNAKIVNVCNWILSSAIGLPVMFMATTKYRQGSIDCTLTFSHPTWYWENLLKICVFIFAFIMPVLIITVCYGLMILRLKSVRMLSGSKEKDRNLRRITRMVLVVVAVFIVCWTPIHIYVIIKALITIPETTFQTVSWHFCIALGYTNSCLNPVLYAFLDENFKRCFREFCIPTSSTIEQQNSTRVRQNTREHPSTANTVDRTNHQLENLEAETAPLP

With Cc1cc(C)cc([C@@H]2CCCN2Cc2ccc(Oc3ccc(C(N)=O)cc3F)cc2)c1 (single isomer, unassigned) [Example 1A] the ED50 (mu receptors (striatum); oral) was greater than 30 mg/kg, the mu receptor occupancy (mu receptors (striatum); oral doses up to 30 mg/kg) was “no significant occupancy” and the breakpoint (P rats) was “reduced”. For the same molecule, the “number of active lever responses” value (P rats) was “reduced”, the “quantity of ethanol consumed” value (P rats) was “reduced” and the “immobility in mouse forced swim test, Mean” value (Male NIH-Swiss mice; Example 1A 1 mg/kg p.o.) was 151.53 s. For the same molecule, the “immobility in mouse forced swim test, Mean” value (Male NIH-Swiss mice; Example 1A 3 mg/kg p.o.) was 172.02 s and the “antidepressant-like activity (immobility), in words” value (Male NIH-Swiss mice; first study, 10.0 mg/kg p.o. 1 hour prior to testing, p<0.05 versus vehicle, Dunnett's test) was “demonstrates antidepressant-like activity”.
